“Also recorded” adds a separate entry of the source.
Experiments:
[1] = biological target: T1, human dopamine D2L receptor (Homo sapiens, UniProt P14416); test: biochemical
Method: (§2) Receptor binding studies were carried out as described previously[43][44].
(§3) The resulting competition curves of the receptor binding experiments were analysed by nonlinear regression using the algorithms in PRISM 6.0 (GraphPad Software, San Diego, CA). […] IC50 values were transformed to Ki values according to the equation of Cheng and Prusoff[48].

[2] = biological target: T1, human dopamine D2L receptor; test: Radioligand binding assay with [3H]spiperone, membranes of CHO cells stably expressing the receptor; settings: for binding affinity (in words): D2R radioligand binding
Method: as §2, §3

[3] = biological target: T2, dopamine receptor subtype D2S (Homo sapiens, UniProt P14416); test: β-Arrestin-2 recruitment assay (PathHunter), agonist and antagonist mode; assay type: cell-based; set-up: expressed in transfected cells; settings: for Emax: D2S-mediated recruitment of β-arrestin-2, PathHunter assay, relative to the maximum effect of quinpirole; for β-arrestin recruitment (in words): agonist mode
T2 sequence (P14416 1-414 isoform P14416-2): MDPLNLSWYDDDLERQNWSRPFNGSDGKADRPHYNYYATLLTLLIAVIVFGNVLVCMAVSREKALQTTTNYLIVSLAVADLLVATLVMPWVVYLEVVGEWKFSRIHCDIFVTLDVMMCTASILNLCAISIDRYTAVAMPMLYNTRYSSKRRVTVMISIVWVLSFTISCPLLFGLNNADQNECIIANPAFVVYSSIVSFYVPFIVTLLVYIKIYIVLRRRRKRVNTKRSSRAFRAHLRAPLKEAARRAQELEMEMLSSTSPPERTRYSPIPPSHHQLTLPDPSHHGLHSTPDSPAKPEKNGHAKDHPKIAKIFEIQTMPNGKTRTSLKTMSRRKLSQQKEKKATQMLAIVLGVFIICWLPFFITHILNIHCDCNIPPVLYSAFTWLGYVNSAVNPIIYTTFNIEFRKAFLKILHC
Method: The measurement of β-arrestin-2 recruitment stimulated by D2R activation was performed using the PathHunter® assay purchased from DiscoveRx (Birmingham, U.K.) according to the manufacturer’s protocol as described previously.
The amount of recruitment of β-arrestin was derived from the agonist-induced increase of chemiluminescence, which was expressed in counts per second (cps). Dose-response curves were normalised to basal cps stimulated by buffer (=0%) and the effect of the maximum effect of the reference compound quinpirole (=100%).
(§1) From each curve, a set of mean values was derived and pooled to result in an average curve showing the EC50 and Emax value, respectively.

[4] = biological target: T2, dopamine receptor subtype D2S; test: cAMP inhibition assay: inhibition of forskolin-stimulated cAMP accumulation (CAMYEL BRET sensor); assay type: cell-based; set-up: expressed in transfected cells; host or cells: HEK293T cells, transient co-transfection with the CAMYEL sensor; settings: for Emax / Inhibition of forskolin-stimulated cAMP accumulation Emax (%): maximum effect relative to the effect of quinpirole
Method: HEK293T cells were transiently co-transfected with pcDNA3L-His-CAMYEL[45] (purchased from ATCC, Manassas, VA via LGC Standards, Wesel, Germany) and D2s receptor, respectively, and the assay was performed according to literature. Twenty-four hours after transfection cells were split into white half-area 96-well plates at 2 × 10^5 cells/well and grown overnight in a phenol-red free medium supplemented with serum (Invitrogen, Darmstadt, Germany). On the day of measurement, the medium was removed and replaced by phosphate buffered saline (PBS). The cells were serum-starved for 1 h before treatment. The assay was started by adding 10 μL of coelenterazine-h (Promega, Mannheim, Germany) to each well to yield a final concentration of 5 μM. After 5 min of incubation, test compounds were added in PBS containing forskolin at a final concentration of 10 μM. After an incubation time of 15 min, BRET measurement was performed with a CLARIOstar plate reader (BMG LabTech, Ortenberg, Germany). […] Curves were normalised to basal BRET ratio obtained from dPBS (0%) and the maximum effect of the reference ligand quinpirole (100%).
Data from cAMP measurements were analysed by normalising the BRET ratios with 0% for the unstimulated receptor and 100% for the full effect of the reference ligand quinpirole. Dose-response curves were calculated by nonlinear regression using the algorithms of PRISM 6.0.
as §1

T1 sequence (P14416 whole entry): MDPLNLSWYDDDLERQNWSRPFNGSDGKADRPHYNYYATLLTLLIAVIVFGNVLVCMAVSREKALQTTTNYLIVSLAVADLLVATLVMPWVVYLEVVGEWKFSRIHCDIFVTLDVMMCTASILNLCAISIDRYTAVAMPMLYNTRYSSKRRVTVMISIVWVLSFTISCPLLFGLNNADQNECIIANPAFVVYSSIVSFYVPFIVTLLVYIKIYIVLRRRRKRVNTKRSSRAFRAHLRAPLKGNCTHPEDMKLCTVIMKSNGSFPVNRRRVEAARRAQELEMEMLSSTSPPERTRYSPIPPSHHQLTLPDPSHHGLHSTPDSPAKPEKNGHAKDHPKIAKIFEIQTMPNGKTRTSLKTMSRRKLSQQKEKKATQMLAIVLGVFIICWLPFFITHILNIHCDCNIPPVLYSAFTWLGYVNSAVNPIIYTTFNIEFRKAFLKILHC

COC(=O)C1=CO[C@@H](C)[C@H]2CN3CCc4c([nH]c5ccccc45)[C@@H]3C[C@H]12 [Ajmalicine]
Ki [1]: > 100 µM

CC(C)(C)NCC(O)c1cc(Cl)c(N)c(Cl)c1 (stereo not shown) [Clenbuterol, reference compound]
Ki [2]: 50 µM

Oc1cc(O)c2cc(O)c(-c3cc(O)c(O)c(O)c3)[o+]c2c1 [Delphinidin]
Ki [1]: 26 µM | Emax [3]: < 7%

COc1ccc2c(c1OC)CN1CCc3cc4c(cc3C1=C2)OCO4 [Dihydroberberine]
Ki [1]: 75 µM

CC[C@H]1CN2CCc3cc(OC)c(OC)cc3[C@@H]2C[C@@H]1C[C@H]1NCCc2cc(OC)c(OC)cc21 [Emetine, reference compound]
Ki [2]: 37 µM

CC(Cc1ccc(C(C)(C)C)cc1)CN1C[C@@H](C)O[C@@H](C)C1 (stereo partly shown) [Fenpropimorph]
Ki [2]: > 100 µM

CC(=O)OC1C(C)CN(C)C2Cc3c[nH]c4cccc(c34)C12 (stereo not shown) [Fumigaclavine A]
Emax [3]: < 7% | β-arrestin recruitment (in words) [3]: did not show β-arrestin recruitment | Ki [2]: 1.1 µM | Ki value relative to the endogenous ligand dopamine ([2]; D2L radioligand binding): seven times higher | EC50 [4]: 0.25 µM | agonist activity in the cAMP accumulation assay / Gi/o activation (in words) ([4]; D2S expressed in HEK cells): weak partial agonists | agonist activity in the cAMP accumulation assay / Gi/o activation (in words) ([4]; D2S expressed in HEK cells, listed as fumigaclavine A): partial agonism in Gi/o activation

O=C(CC1NCCCC1O)Cn1cnc2cc(Br)c(Cl)cc2c1=O (stereo not shown) [Halofuginone, reference compound]
Ki [2]: > 50 µM

CN(C)CCc1ccc(O)cc1 [Hordenine]
Emax [3]: < 7% | β-arrestin recruitment (in words) [3]: did not show significant β-arrestin recruitment; also recorded: no β-arrestin-2 recruitment was determined | antagonism of quinpirole-stimulated β-arrestin-2 recruitment (in words) ([3]; antagonist mode: 30 min pre-incubation, then 300 nM quinpirole): antagonised D2-mediated β-arrestin recruitment; also recorded: antagonistic activity; also recorded: completely antagonised quinpirole-stimulated recruitment; also recorded: antagonism in β-arrestin recruitment | Ki [2]: 13 µM | binding affinity (in words) [2]: low micromolar range | EC50 [4]: 3.7 µM | agonist activity in the cAMP accumulation assay / Gi/o activation (in words) ([4]; D2S expressed in HEK cells): shows agonist properties; also recorded: almost full D2R-agonist in Gi/o activation | Emax ([4]; HEK293, read-out: Inhibition of forskolin-stimulated cAMP accumulation Emax (%), D2S expressed in HEK cells): 76%

O=C(CCc1ccc(O)c(O)c1)NCCCNCCCCNCCCNC(=O)CCc1ccc(O)c(O)c1 [Kukoamine A]
Ki [1]: > 100 µM

COc1cc(C(=O)OCCCCNC(=N)N)cc(OC)c1O [Leonurine]
Ki [1]: > 100 µM

NCc1cc(=O)[nH]o1 [Muscimol]
Ki [2]: > 100 µM

N[C@@H](CCCCn1c(C=O)ccc1CO)C(=O)O [Pyrraline]
Ki [1]: > 100 µM

N=C(N/N=C/c1ccc(Cl)cc1)N/N=C/c1ccc(Cl)cc1 [Robenidine, reference compound]
Ki [1]: 5.4 µM | Emax [3]: < 7% | β-arrestin recruitment (in words) [3]: could not observe any activation; also recorded: did not show any activation | binding affinity (in words) [2]: low micromolar range | agonist activity in the cAMP accumulation assay / Gi/o activation (in words) ([4]; D2S expressed in HEK cells): could not observe any activation; also recorded: did not show any activation | Emax ([4]; HEK293, D2S expressed in HEK cells, read-out: Inhibition of forskolin-stimulated cAMP accumulation Emax (%)): < 5%

C=CC(C)(C)[C@@]12C[C@H]3C(=O)N/C(=C/c4c[nH]cn4)C(=O)N3[C@@H]1Nc1ccccc12 [Roquefortine C]
Ki [1]: > 100 µM

CC1NCCc2cc(O)c(O)cc21 (stereo not shown) [Salsolinol]
Emax [3]: < 7% | β-arrestin recruitment (in words) [3]: did not show β-arrestin recruitment | agonist activity in the cAMP accumulation assay / Gi/o activation (in words) ([4]; D2S expressed in HEK cells): weak partial agonists; also recorded: partial agonism in Gi/o activation | Inhibition of forskolin-stimulated cAMP accumulation Emax (%) ([4]; D2S expressed in HEK cells): 21% | Inhibition of forskolin-stimulated cAMP accumulation Emax (%) ([4]; D2S expressed in HEK cells, listed as salsolinol): below 50%

O=C(O)c1cn(-c2ccc(F)cc2)c2cc(N3CCNCC3)c(F)cc2c1=O [Sarafloxacin, reference compound]
Ki [1]: > 100 µM

Source: publication PMC5345022 (Scientific Reports, 2017)
